Measured values published in ChEMBL document CHEMBL4396913, “Synthesis and biological evaluation of hybrid quinolone-based quaternary ammonium antibacterial agents” (Eur J Med Chem, 2019).
In brackets after ≈: the same amount, converted by molar mass.

How the values were obtained:
[1] = Lipophilicity, log k of the compound at 100 ug/ml by micellar electrokinetic chromatography; format: physicochemical
[2] = test system: Staphylococcus aureus; assay: Antibacterial activity against Staphylococcus aureus ATCC 6538 cultured in MH medium assessed as reduction in bacterial growth incubated for 48 hrs by microbroth dilution method; format: functional; conditions: ATCC 6538, 48 h
[3] = test system: Staphylococcus aureus; assay: Bactericidal activity against Staphylococcus aureus ATCC 6538 cultured in MH medium assessed as reduction in bacterial survival incubated for 48 hrs by microbroth dilution method; format: functional; conditions: ATCC 6538, 48 h
[4] = test system: Staphylococcus aureus; assay: Antibacterial activity against methicillin resistant Staphylococcus aureus N315 cultured in MH medium assessed as reduction in bacterial growth incubated for 48 hrs by microbroth dilution method; format: functional; conditions: N315, 48 h
[5] = test system: Staphylococcus aureus; assay: Bactericidal activity against methicillin resistant Staphylococcus aureus N315 cultured in MH medium assessed as reduction in bacterial survival incubated for 48 hrs by microbroth dilution method; format: functional; conditions: N315, 48 h
[6] = test system: Staphylococcus epidermidis; assay: Antibacterial activity against Staphylococcus epidermidis ATCC 14990 cultured in MH medium assessed as reduction in bacterial growth incubated for 48 hrs by microbroth dilution method; format: functional; conditions: ATCC 14990, 48 h
[7] = test system: Staphylococcus epidermidis; assay: Bactericidal activity against Staphylococcus epidermidis ATCC 14990 cultured in MH medium assessed as reduction in bacterial survival incubated for 48 hrs by microbroth dilution method; format: functional; conditions: ATCC 14990, 48 h
[8] = test system: Enterococcus hirae; assay: Antibacterial activity against Enterococcus hirae ATCC 1052 cultured in BHI medium assessed as reduction in bacterial growth incubated for 48 hrs by microbroth dilution method; format: functional; conditions: ATCC 1052, 48 h
[9] = test system: Bacillus spizizenii; assay: Antibacterial activity against Bacillus subtilis ATCC 6633 cultured in MH medium assessed as reduction in bacterial growth incubated for 48 hrs by microbroth dilution method; format: functional; conditions: ATCC 6633, 48 h
[10] = test system: Bacillus spizizenii; assay: Bactericidal activity against Bacillus subtilis ATCC 6633 cultured in MH medium assessed as reduction in bacterial survival incubated for 48 hrs by microbroth dilution method; format: functional; conditions: ATCC 6633, 48 h
[11] = test system: Escherichia coli; assay: Antibacterial activity against Escherichia coli ATCC 8739 cultured in MH medium assessed as reduction in bacterial growth incubated for 48 hrs by microbroth dilution method; format: functional; conditions: ATCC 8739, 48 h
[12] = test system: Escherichia coli; assay: Bactericidal activity against Escherichia coli ATCC 8739 cultured in MH medium assessed as reduction in bacterial survival incubated for 48 hrs by microbroth dilution method; format: functional; conditions: ATCC 8739, 48 h
[13] = test system: Pseudomonas aeruginosa; assay: Antibacterial activity against Pseudomonas aeruginosa ATCC 9027 cultured in MH medium assessed as reduction in bacterial growth incubated for 48 hrs by microbroth dilution method; format: functional; conditions: ATCC 9027, 48 h
[14] = test system: Pseudomonas aeruginosa; assay: Bactericidal activity against Pseudomonas aeruginosa ATCC 9027 cultured in MH medium assessed as reduction in bacterial survival incubated for 48 hrs by microbroth dilution method; format: functional; conditions: ATCC 9027, 48 h
[15] = test system: Proteus vulgaris; assay: Antibacterial activity against Proteus vulgaris NCTC 4635 cultured in MH medium assessed as reduction in bacterial growth incubated for 48 hrs by microbroth dilution method; format: functional; conditions: NCTC 4635, 48 h
[16] = test system: Proteus vulgaris; assay: Bactericidal activity against Proteus vulgaris NCTC 4635 cultured in MH medium assessed as reduction in bacterial survival incubated for 48 hrs by microbroth dilution method; format: functional; conditions: NCTC 4635, 48 h
[17] = test system: Staphylococcus aureus; assay: Antibacterial activity against methicillin resistant Staphylococcus aureus 6347 cultured in MH medium assessed as reduction in bacterial growth incubated for 48 hrs by microbroth dilution method; format: functional; conditions: Staphylococcus aureus, 6347, 48 h
[18] = test system: Staphylococcus aureus; assay: Bactericidal activity against methicillin resistant Staphylococcus aureus 6347 cultured in MH medium assessed as reduction in bacterial survival incubated for 48 hrs by microbroth dilution method; format: functional; conditions: Staphylococcus aureus, 6347, 48 h
[19] = test system: Staphylococcus epidermidis; assay: Antibacterial activity against methicillin resistant Staphylococcus epidermidis ATCC 13199 cultured in MH medium assessed as reduction in bacterial growth incubated for 48 hrs by microbroth dilution method; format: functional; conditions: ATCC 13199, 48 h
[20] = test system: Staphylococcus epidermidis; assay: Bactericidal activity against methicillin resistant Staphylococcus epidermidis ATCC 13199 cultured in MH medium assessed as reduction in bacterial survival incubated for 48 hrs by microbroth dilution method; format: functional; conditions: ATCC 13199, 48 h
[21] = test system: Streptococcus pneumoniae; assay: Antibacterial activity against Streptococcus pneumoniae cultured in MH medium assessed as reduction in bacterial growth incubated for 48 hrs by microbroth dilution method; format: functional
[22] = test system: Streptococcus pneumoniae; assay: Bactericidal activity against Streptococcus pneumoniae cultured in MH medium assessed as reduction in bacterial survival incubated for 48 hrs by microbroth dilution method; format: functional
[23] = test system: Serratia marcescens; assay: Antibacterial activity against Serratia marcescens ATCC 12795 cultured in MH medium assessed as reduction in bacterial growth incubated for 48 hrs by microbroth dilution method; format: functional; conditions: ATCC 12795, 48 h
[24] = test system: Serratia marcescens; assay: Bactericidal activity against Serratia marcescens ATCC 12795 cultured in MH medium assessed as reduction in bacterial survival incubated for 48 hrs by microbroth dilution method; format: functional; conditions: ATCC 12795, 48 h
[25] = test system: Proteus vulgaris; assay: Resistance index, ratio of MIC for Proteus vulgaris NCTC 4635 measured after 15 passages to MIC for Proteus vulgaris NCTC 4635 measured after 48 hrs incubation by microbroth dilution method; format: functional
[26] = test system: Staphylococcus epidermidis; assay: Ratio of gatifloxacin resistance index to compound resistance index for methicillin resistant Staphylococcus epidermidis ATCC 13199 by microbroth dilution method; format: functional
[27] = test system: Escherichia coli; assay: Antibacterial activity against […] Escherichia coli ATCC 8739 assessed as reduction in bacterial growth incubated for 48 hrs in presence of 50 ug/ml […], PAbetaN by microbroth dilution method; format: functional; conditions: ATCC 8739, 48 h
[28] = test system: Escherichia coli; assay: Bactericidal activity against […] Escherichia coli ATCC 8739 assessed as reduction in bacterial survival incubated for 48 hrs in presence of 50 ug/ml […], PAbetaN by microbroth dilution method; format: functional; conditions: ATCC 8739, 48 h
[29] = test system: HEK293; assay: Cytotoxicity against human HEK293 cells assessed as cell viability upto 20 uM incubated for 72 hrs by MTT assay; format: cell-based; conditions: hek293, 72 h
[30] = test system: HEK293; assay: Cytotoxicity against human HEK293 cells assessed as changes in cell morphology upto 20 uM incubated for 72 hrs by MTT assay; format: cell-based; conditions: hek293, 72 h
[31] = test system: Proteus vulgaris; assay: Antibacterial activity against Proteus vulgaris NCTC 4635 measured after 15 passages by microbroth dilution method; format: functional
[32] = test system: Enterococcus hirae; assay: Bactericidal activity against Enterococcus hirae ATCC 1052 cultured in BHI medium assessed as reduction in bacterial survival incubated for 48 hrs by microbroth dilution method; format: functional; conditions: ATCC 1052, 48 h
[33] = test system: Proteus vulgaris; assay: Resistance index, ratio of MIC for Proteus vulgaris NCTC 4635 measured after 5 dilution steps to MIC for Proteus vulgaris NCTC 4635 measured after 48 hrs incubation by microbroth dilution method; format: functional

What does the source list for `COc1c(N2CC[N+]3(CN4C(C)=CC(C)=C(C(=O)O)C4=N3)C(C)C2)c(F)cc2c(=O)c(C(=O)O)cn(C3CC3)c12.[Cl-]` (configuration not stated)?
log K [1]: -0.408; MIC [2]: 8 µg/mL; MBC [3]: 16 µg/mL; MIC [4]: 8 µg/mL; MBC [5]: 8 µg/mL; MIC [6]: 8 µg/mL; MBC [7]: 16 µg/mL; MIC [8]: > 512 µg/mL; MIC [9]: 2 µg/mL; MBC [10]: 2 µg/mL; MIC [11]: 2 µg/mL; MBC [12]: 2 µg/mL; MIC [13]: 32 µg/mL; MBC [14]: 256 µg/mL; MIC [15]: 0.5 µg/mL; MBC [16]: 0.5 µg/mL; MIC [17]: 8 µg/mL; MBC [18]: 16 µg/mL; MIC [19]: 4 µg/mL; MBC [20]: 8 µg/mL; MIC [21]: 128 µg/mL; MBC [22]: 256 µg/mL; MIC [23]: 32 µg/mL; MBC [24]: 32 µg/mL; Ratio [25]: 4; Ratio [26]: 2; MIC [27]: 1 µg/mL; MBC [28]: 2 µg/mL; Activity [29]: Non-Toxic; Activity [30]: Non-Toxic; MIC [31]: 2 µg/mL

What does the source list for `COc1c(N2CCNC(C)C2)c(F)cc2c(=O)c(C(=O)O)cn(C3CC3)c12` (configuration not stated) [GATIFLOXACIN]?
log K [1]: 0.101; MIC [2]: 0.25 µg/mL (≈ 0.666 µM); MBC [3]: 0.25 µg/mL (≈ 0.666 µM); MIC [4]: 0.125 µg/mL (≈ 0.333 µM); MBC [5]: 0.125 µg/mL (≈ 0.333 µM); MIC [6]: 0.125 µg/mL (≈ 0.333 µM); MBC [7]: 0.25 µg/mL (≈ 0.666 µM); MIC [8]: 8 µg/mL (≈ 21.3 µM); MBC [32]: 16 µg/mL (≈ 42.6 µM); MIC [9]: 0.032 µg/mL (≈ 0.0852 µM); MBC [10]: 0.063 µg/mL (≈ 0.168 µM); MIC [11]: 0.016 µg/mL (≈ 0.0426 µM); MBC [12]: 0.032 µg/mL (≈ 0.0852 µM); MIC [13]: 0.25 µg/mL (≈ 0.666 µM); MBC [14]: 0.25 µg/mL (≈ 0.666 µM); MIC [15]: 0.008 µg/mL (≈ 0.0213 µM); MBC [16]: 0.008 µg/mL (≈ 0.0213 µM); MIC [17]: 0.125 µg/mL (≈ 0.333 µM); MBC [18]: 0.125 µg/mL (≈ 0.333 µM); MIC [19]: 0.063 µg/mL (≈ 0.168 µM); MBC [20]: 0.063 µg/mL (≈ 0.168 µM); MIC [21]: 1 µg/mL (≈ 2.66 µM); MBC [22]: 256 µg/mL (≈ 682 µM); MIC [23]: 0.25 µg/mL (≈ 0.666 µM); MBC [24]: 0.5 µg/mL (≈ 1.33 µM); Ratio [33]: 32
